Data published in ChEMBL document CHEMBL3217615, “Novel 3,5-bis(arylidiene)-4-piperidone based monocarbonyl analogs of curcumin: anticancer activity evaluation and mode of action study” (2014).

Columns and labels:
Assay type in all cases: functional
[1] = Growth inhibition of human BT549 cells after 48 hrs by sulforhodamine B assay; conditions: BT-549, 48 h
[2] = Growth inhibition of human Hs 578T cells after 48 hrs by sulforhodamine B assay
[3] = tested on: SW-620; assay: Growth inhibition of human SW620 cells assessed as cell growth at 10^-6 M after 48 hrs by sulforhodamine B assay; conditions: SW-620, 48 h, read-out: Activity
[4] = Growth inhibition of human HOP92 cells assessed as cell growth at 10^-6 M after 48 hrs by sulforhodamine B assay; conditions: HOP-92, 48 h, read-out: Activity
[5] = tested on: CCRF-CEM; assay: Growth inhibition of human CCRF-CEM cells assessed as cell growth at 10^-6 M after 48 hrs by sulforhodamine B assay; conditions: read-out: Activity
[6] = Growth inhibition of human Hs 578T cells assessed as cell growth at 10^-7 M after 48 hrs by sulforhodamine B assay; conditions: read-out: Activity
[7] = tested on: TK-10; assay: Growth inhibition of human TK10 cells assessed as cell growth at 10^-7 M after 48 hrs by sulforhodamine B assay; conditions: TK-10, 48 h, read-out: Activity
[8] = Growth inhibition of human Hs 578T cells assessed as cell growth at 10^-6 M after 48 hrs by sulforhodamine B assay; conditions: read-out: Activity
[9] = tested on: PC-3; assay: Growth inhibition of human PC3 cells assessed as cell growth at 10^-6 M after 48 hrs by sulforhodamine B assay; conditions: PC-3, 48 h, read-out: Activity
[10] = tested on: TK-10; assay: Growth inhibition of human TK10 cells assessed as cell growth at 10^-6 M after 48 hrs by sulforhodamine B assay; conditions: TK-10, 48 h, read-out: Activity
[11] = tested on: HOP-62; assay: Growth inhibition of human HOP62 cells assessed as cell growth at 10^-4 M after 48 hrs by sulforhodamine B assay; conditions: HOP-62, 48 h, read-out: Activity
[12] = tested on: RPMI-8226; assay: Growth inhibition of human RPMI8226 cells assessed as cell growth at 10^-4 M after 48 hrs by sulforhodamine B assay; conditions: RPMI-8226, 48 h, read-out: Activity
[13] = tested on: CCRF-CEM; assay: Growth inhibition of human CCRF-CEM cells assessed as cell growth at 10^-4 M after 48 hrs by sulforhodamine B assay; conditions: read-out: Activity
[14] = tested on: SNB-19; assay: Growth inhibition of human SNB19 cells assessed as cell growth at 10^-8 M after 48 hrs by sulforhodamine B assay; conditions: SNB-19, 48 h; for growth at 0.01 µM: read-out: Activity; for TGI: read-out: pTGI (converted)
[15] = tested on: HT-29; assay: Growth inhibition of human HT-29 cells assessed as cell growth at 10^-8 M after 48 hrs by sulforhodamine B assay; conditions: HT-29, 48 h; for growth at 0.01 µM: read-out: Activity; for TGI: read-out: pTGI (converted)
[16] = Growth inhibition of human MOLT4 cells assessed as cell growth at 10^-8 M after 48 hrs by sulforhodamine B assay; conditions: MOLT-4, 48 h; for growth at 0.01 µM: read-out: Activity; for CC50: read-out: pLC50 (the source's name) (converted); for TGI: read-out: pTGI (converted)
[17] = tested on: HL-60(TB); assay: Growth inhibition of human HL-60(TB) cells assessed as cell growth at 10^-8 M after 48 hrs by sulforhodamine B assay; conditions: HL-60, 48 h; for growth at 0.01 µM: read-out: Activity; for CC50: read-out: pLC50 (the source's name) (converted); for TGI: read-out: pTGI (converted)
[18] = tested on: TK-10; assay: Growth inhibition of human TK10 cells after 48 hrs by sulforhodamine B assay; conditions: TK-10, 48 h
[19] = Growth inhibition of human Hs 578T cells assessed as cell growth at 10^-4 M after 48 hrs by sulforhodamine B assay; conditions: read-out: Activity
[20] = tested on: TK-10; assay: Growth inhibition of human TK10 cells assessed as cell growth at 10^-4 M after 48 hrs by sulforhodamine B assay; conditions: TK-10, 48 h, read-out: Activity
[21] = tested on: SNB-75; assay: Growth inhibition of human SNB75 cells assessed as cell growth at 10^-7 M after 48 hrs by sulforhodamine B assay; conditions: SNB-75, 48 h, read-out: Activity
[22] = Growth inhibition of human Hs 578T cells assessed as cell growth at 10^-8 M after 48 hrs by sulforhodamine B assay
[23] = tested on: TK-10; assay: Growth inhibition of human TK10 cells assessed as cell growth at 10^-8 M after 48 hrs by sulforhodamine B assay; conditions: TK-10, 48 h
[24] = Growth inhibition of human OVCAR3 cells assessed as cell growth at 10^-8 M after 48 hrs by sulforhodamine B assay; conditions: OVCAR-3, 48 h; for growth at 0.01 µM: read-out: Activity; for TGI: read-out: pTGI (converted)
[25] = tested on: KM12; assay: Growth inhibition of human KM12 cells assessed as cell growth at 10^-6 M after 48 hrs by sulforhodamine B assay; conditions: KM12, 48 h, read-out: Activity
[26] = read-out: LC50 (the source's name)

Question: Which GI50 [1] does the source give for Cc1ccc(S(=O)(=O)N2C/C(=C\c3cc(F)cc(F)c3)C(=O)/C(=C/c3cc(F)cc(F)c3)C2)cc1 here?
Answer: 0.34 µM

Question: What about the LC50 [1] of the same compound?
Answer: 3.52 µM

Question: What about the TGI [1] of the same compound?
Answer: 0.931 µM

Question: And the GI50 [2]?
Answer: 0.399 µM

Question: And the TGI [2]?
Answer: 18.6 µM

Question: And the CC50 [2, 26]?
Answer: > 100 µM

Question: And the growth at 1 µM [3]?
Answer: -45%

Question: What about the growth at 1 µM [4] of the same compound?
Answer: 55%

Question: And the growth at 1 µM [5]?
Answer: -1%

Question: What about the growth at 0.1 µM [6] of the same compound?
Answer: 93%

Question: What about the growth at 0.1 µM [7] of the same compound?
Answer: 106%

Question: What about the growth at 1 µM [8] of the same compound?
Answer: 22%

Question: What about the growth at 1 µM [9] of the same compound?
Answer: -9%

Question: What about the growth at 1 µM [10] of the same compound?
Answer: 52%

Question: What about the growth at 100 µM [11] of the same compound?
Answer: -93%

Question: What about the growth at 100 µM [12] of the same compound?
Answer: -50%

Question: And the growth at 100 µM [13]?
Answer: -29%

Question: And the GI50 [14]?
Answer: 0.219 µM

Question: What about the LC50 [14] of the same compound?
Answer: 2.82 µM

Question: What about the growth at 0.01 µM [14] of the same compound?
Answer: 87%

Question: And the TGI [14]?
Answer: 0.759 µM

Question: And the GI50 [15]?
Answer: 0.229 µM

Question: What about the LC50 [15] of the same compound?
Answer: 3.16 µM

Question: What about the growth at 0.01 µM [15] of the same compound?
Answer: 105%

Question: What about the TGI [15] of the same compound?
Answer: 0.631 µM

Question: And the GI50 [16]?
Answer: 0.302 µM

Question: And the growth at 0.01 µM [16]?
Answer: 100%

Question: And the CC50 [16]?
Answer: > 100 µM

Question: And the TGI [16]?
Answer: 2.09 µM

Question: And the GI50 [17]?
Answer: 0.288 µM

Question: And the growth at 0.01 µM [17]?
Answer: 116%

Question: What about the CC50 [17] of the same compound?
Answer: > 100 µM

Question: And the TGI [17]?
Answer: 1.74 µM

Question: What about the GI50 [18] of the same compound?
Answer: 1.03 µM

Question: What about the TGI [18] of the same compound?
Answer: 2.96 µM

Question: What about the CC50 [18, 26] of the same compound?
Answer: 8.46 µM

Question: And the growth at 100 µM [19]?
Answer: -23%

Question: What about the growth at 100 µM [20] of the same compound?
Answer: -85%

Question: And the growth at 0.1 µM [21]?
Answer: 90%

Question: And the GI50 [22]?
Answer: 0.398 µM

Question: What about the LC50 [22] of the same compound?
Answer: > 100 µM

Question: And the growth at 0.01 µM ([22]; read-out: Activity)?
Answer: 92%

Question: What about the TGI ([22]; read-out: pTGI (converted)) of the same compound?
Answer: 18.6 µM

Question: And the GI50 [23]?
Answer: 1.02 µM

Question: And the LC50 (50% lethal concentration) [23]?
Answer: 8.51 µM

Question: What about the growth at 0.01 µM ([23]; read-out: Activity) of the same compound?
Answer: 103%

Question: And the TGI ([23]; read-out: pTGI (converted))?
Answer: 2.95 µM

Question: What about the GI50 [24] of the same compound?
Answer: 0.437 µM

Question: What about the LC50 [24] of the same compound?
Answer: 4.57 µM

Question: And the growth at 0.01 µM [24]?
Answer: 110%

Question: What about the TGI [24] of the same compound?
Answer: 1.45 µM

Question: For O=C1/C(=C/c2ccc(Cl)cc2Cl)CN(S(=O)(=O)c2ccccc2)C/C1=C\c1ccc(Cl)cc1Cl, which GI50 [1] is on record?
Answer: 0.987 µM

Question: And the LC50 [1]?
Answer: > 100 µM

Question: And the TGI [1]?
Answer: 4.21 µM

Question: And the growth at 1 µM [3]?
Answer: 4%

Question: And the growth at 1 µM [25]?
Answer: -30%

Question: And the growth at 1 µM [4]?
Answer: 72%

Question: And the growth at 100 µM [12]?
Answer: -35%

Question: What about the growth at 100 µM [13] of the same compound?
Answer: -19%

Question: What about the GI50 [14] of the same compound?
Answer: 0.316 µM

Question: What about the LC50 [14] of the same compound?
Answer: > 100 µM

Question: What about the growth at 0.01 µM [14] of the same compound?
Answer: 92%

Question: And the TGI [14]?
Answer: 2.88 µM

Question: What about the GI50 [15] of the same compound?
Answer: 0.295 µM

Question: And the LC50 [15]?
Answer: > 100 µM

Question: And the growth at 0.01 µM [15]?
Answer: 102%

Question: What about the TGI [15] of the same compound?
Answer: 0.851 µM

Question: And the GI50 [16]?
Answer: 0.589 µM

Question: What about the growth at 0.01 µM [16] of the same compound?
Answer: 104%

Question: And the CC50 [16]?
Answer: > 100 µM

Question: What about the TGI [16] of the same compound?
Answer: 9.12 µM

Question: What about the GI50 [17] of the same compound?
Answer: 0.562 µM

Question: What about the growth at 0.01 µM [17] of the same compound?
Answer: 97%

Question: And the CC50 [17]?
Answer: > 100 µM

Question: And the TGI [17]?
Answer: 3.98 µM

Question: And the growth at 0.1 µM [21]?
Answer: 71%

Question: What about the GI50 [24] of the same compound?
Answer: 0.309 µM

Question: What about the LC50 [24] of the same compound?
Answer: 5.01 µM

Question: What about the growth at 0.01 µM [24] of the same compound?
Answer: 112%

Question: What about the TGI [24] of the same compound?
Answer: 0.813 µM
